Reference: patent US12290496B2, “Compounds for use in preventing or treating athlete overtraining” (TDELTAS LIMITED, priority 2018, dated 2025)
Blank lines part the entries; values can stand above or below the molecule they belong to.

Assays:
[1] = Circulating (R)-3-hydroxybutyrate levels and gut uptake after consumption of esters; format: in vivo
[2] = Blood ketone (β-hydroxybutyrate) levels during 3-week training overload study (FIG. 1); format: in vivo, human; conditions: 30 minutes following ingestion; days 6, 13 and 20
Experimental: (§1) A randomized placebo-controlled (ketone ester versus placebo) intervention study was performed. The study involved a pretest and a posttest with a 3-week training overload period in between (Table 1A). During this 3-week period, subjects received either ketone ester or an isocaloric placebo (long chain triglyceride) after each training session and 30 minutes before sleep. The conditions were blinded to both the subjects and the investigators until completion of all the experiments.
Immediately following each training session and 30 min before sleep, subjects received a recovery drink (6D Recovery Shake, Medix, Oudenaarde, Belgium) containing 1 g carbohydrates per kg body weight, plus 0.35 g whey protein isolate per kg body weight. Additionally, subjects received 0.35 g per kg body weight of a ketone ester drink or an isocaloric placebo (PL; long chain triglycerides) as a separate drink to be ingested together with the carbohydrate/protein recovery drink. […]
Furthermore, during TT30min small capillary blood samples (5 μl) were collected at 5-min time intervals via a small puncture in the earlobe. These microsamples were immediately analyzed for blood lactate concentration (Lactate Pro®, Arkray, Kyoto, Japan), blood glucose and βHB levels (GlucoMen Lx plus-meter with Lx glucose or Lx β-ketone strips, Menarini Diagnostics, Firenze, Italy). […]

[3] = 30-minute simulated cycling time trial (TT30min) performance (FIG. 2); format: in vivo, human
Experimental: as §1
Three weeks prior to the start of the study, subjects underwent a sport medical screening by a certified sports physician. One week later, the subjects participated in three familiarization sessions (Table 1B) to get familiar with the experimental procedures. […] Respiratory gas exchange was measured continuously during the test (Cortex Metalyzer II, Leipzig, Germany), and the highest oxygen uptake measured over a 30-s period defined as the maximal oxygen uptake (VO2max). […]
For the first experimental session, after a 10-min warming up (5 min at 100 W, plus 5 min at 150 W), the subjects performed a TT30min. […] Immediately after completion of the TT, subjects (1) scored the rate of perceived exertion on a 15-point Borg scale and completed a gastrointestinal symptom questionnaire. […]

[4] = 30-minute time trial after 2 h submaximal constant-load exercise bout, day 18 (FIG. 3); format: in vivo, human
Experimental: as §1
(§2) Immediately following each training session and 30 min before sleep, subjects received a recovery drink (6D Recovery Shake, Medix, Oudenaarde, Belgium) containing 1 g carbohydrates per kg body weight, plus 0.35 g whey protein isolate per kg body weight. Additionally, subjects received 0.35 g per kg body weight of a ketone ester drink or an isocaloric placebo (PL; long chain triglycerides) as a separate drink to be ingested together with the carbohydrate/protein recovery drink. The ketone ester supplement (ΔG®) delivered pure D-β-hydroxybutyrate-R 1,3 butanediol monoester. These nutritional supplements have been extensively tested before (see for instance Cox et al; Cell Metab 24: 256-268, 2016).
FIG. 3 illustrates the 30 minute time trial performance results at the end of a 120 minute constant-load endurance training session at day 18 of the training period. […]

[5] = Peak heart rate during 90 second all-out isokinetic sprint (FIG. 4); format: in vivo, human; conditions: 90 second all-out isokinetic sprints, 3-week training overload period
Experimental: as §1, §2
FIG. 4A gives the absolute values, and FIG. 4B gives the decrease in heart rate (Δ) from the pre-test values. […]

[6] = Submaximal heart rate during first 5 minutes of 30-min time trial (FIG. 5); format: in vivo, human; conditions: 3-week training overload period
Experimental: as §1
For the first experimental session, after a 10-min warming up (5 min at 100 W, plus 5 min at 150 W), the subjects performed a TT30min. During the first 5 minutes (t0-t5), the workload was set equal to the mean power output achieved during the TT30min in the last familiarization session. From t5 to t25, the subjects adjusted the workload at 5-min intervals according to their subjective perception of fatigue. From t25 to t30, 1-min adjustments were allowed so as to be able to establish full exhaustion by the end of the TT. Immediately after completion of the TT, subjects (1) scored the rate of perceived exertion on a 15-point Borg scale and completed a gastrointestinal symptom questionnaire. Following 15 min of active recovery (cycling @ 50 W), subjects performed a W30s. One day later, the subjects returned to the laboratory for the second experimental session. During this session a VO2max test was performed. […]

[7] = DXA scanning before and after 3-week training period (FIG. 6); format: in vivo, human; conditions: 3-week training overload period
Experimental: as §1, §2

[8] = Food (energy) intake during 3-week training period (FIG. 7); format: in vivo, human; conditions: placebo energy intake stable
Experimental: as §1, §2

leptin = experiment: Leptin levels in fasted plasma samples (FIG. 8); format: in vivo, human
Experimental: as §1, §2
Blood samples (2×5 ml) were taken from an arm vein by use of the Venoject® system into BD Vacutainer® tubes. […]

noradrenaline = experiment: Urinary total nocturnal noradrenaline excretion (FIG. 9b); format: in vivo, human; conditions: before and during 3-week overreaching/overtraining period; consistently elevated in placebo
Experimental: as §1, §2
Total nocturnal urine (10 pm to 8 am) was collected during the night before each experimental session in flasks prepared with 10 ml hydrochloric acid. […]

[9] = Training volume / work per week and per session (FIG. 10, 11); format: in vivo, human
Experimental: Following the pre-test, participants were enrolled in a 3-week supervised and fully-controlled exercise training program. Each week of the training program consisted of six training days with an interval training in the morning and an endurance training in the evening, for a total of twelve training sessions per week (Table 2).
The number of maximal sprints in the HIIT sessions increased from 4 in week 1, to 5 in week 2 and 6 in the final week. Endurance sessions were performed in the evening and consisted of 150 min of cycling at 65% VO2max. During the 3-week training period the subjects abstained from any exercise other than the exercise prescribed by the study protocol.
as §2

[10] = acute ingestion, elite cyclists; cited from earlier work

circulating levels of (R)-3-hydroxybutyrate in the blood ([1]; in vivo): high circulating levels | level of uptake in the gut ([1]; in vivo): surprisingly high level of uptake | blood β-hydroxybutyrate levels versus placebo drink [2]: significantly higher
Molecule: C[C@@H](O)CCOC(=O)C[C@@H](C)O [ketone ester, (R)-3-hydroxybutyl (R)-3-hydroxybutyrate]
increase in power output from pre-test ([3]; following 1 week of tapering after 3-week training overload period, not increased in placebo group): ~8% | average power during 30 minute time trial versus placebo ([3]; post-test and follow-up 1): significantly higher | increase in mean power output compared with placebo drink ([4]; day 18 of training period): ~15% | average power in 30 minute time trial versus placebo group ([4]; end of 120 minute constant-load endurance session, day 18): significantly higher | decline in maximum (peak) heart rate from pre-test, versus placebo [5]: significantly less | decline in submaximal heart rate vs. pre-test, versus placebo [6]: significantly less | bone mineral content in post-test compared to placebo [7]: increased bone mineral content | changes in body fat compared with placebo [7]: did not alter | changes in lean body mass compared with placebo [7]: did not alter | daily energy intake from week 1 to week 3 [8]: spontaneously increased | leptin levels compared to placebo (leptin; all timepoints after the pretest): higher at all timepoints | leptin levels from pretest to posttest (leptin; significantly dropped in placebo group): constant | urinary total nocturnal noradrenaline excretion (noradrenaline): stable at baseline levels | workload effected during each single training session versus placebo ([9]; from day 20): higher | training load versus placebo ([9]; week 3): definitely higher | training load versus placebo ([9]; weeks 1 and 2): no difference | endurance performance [10]: improve endurance performance

circulating levels of (R)-3-hydroxybutyrate in the blood ([1]; upon consumption of a drink): high circulating levels | level of uptake in the gut ([1]; upon consumption of a drink): surprisingly high level of uptake
Molecule: (R)-3-hydroxybutyrate-glycerol partial ester
